Laboratory results taken from patent US20050074879A1, “Antisense oligonucleotide modulation of STAT3 expression” (priority 2000, published 2005).
Oligonucleotides are written 5' to 3', each unit as a sugar letter and its base; * is a phosphorothioate linkage, no mark a phosphodiester; rarer units and linkages stand in square brackets, end groups in braces. Plain capitals give the bases only. e = 2'-O-(2-methoxyethyl) (MOE); [5mC] = 5-methylcytosine; d = 2'-deoxy (DNA)

Key:
Human STAT3 mRNA [1] = assay: Inhibition of human STAT3 mRNA expression in U266 cells, Northern blot; type: cell-based; details: for % mRNA INHIBITION / % mRNA EXPRESSION: U266 cells, 2.5 μM oligonucleotide, electroporation, 24 hours; for % mRNA EXPRESSION: percent of control
Method: U266 human myeloma cell lines (originally obtained from American Type Culture Collection) were maintained in RPMI 1640 medium supplemented with 10% fetal calf serum. Cells (15×10^6 cells in PBS) were transfected with oligonucleotides at 200V with a single 6-millisecond pulse using a BTX Electro Square Porator T820 (Genetronics, San Diego Calif.). The cells were incubated for 24 hours before RNA extraction.
Total cellular RNA was isolated using the Rneasy kit (Qiagen, Santa Clarita, Calif.). Northern blotting was perfomed on 15 μg of RNA using a cDNA probe prepared from MB-MDA 468 RNA by standard RT-PCR followed by a nested primer reaction. Signals were quantitated using a Molecular Dynamics Phosphorimager.
In order to examine the importance of STAT3 expression in multiple myeloma cells, a series of 20mer STAT3 antisense oligonucleotides were designed and synthesized, using phosphorothioate chemistry and incorporating 2′-O-methoxyethyl modifications to improve hybridization affinity and nuclease resistance.

[2] = system: IgM secretion by BCL1 cells; assay: BCL1 IgM secretion, ELISA; type: cell-based, mouse
Method: The effect of ISIS 17152 (SEQ ID. NO. 99) on IgM secretion levels was determined. STAT3 has been implicated in regulation of IgM expression (Faris, M., et al., Immunology, 1997, 90, 350-357). BCL1 cells were grown, treated and processed as described in Example 2.
1×10^6 BCL1 cells were incubated in 12-well plates in 2 mL complete RPMI following electroporation. Supernatant was replaced at 24 hour post electroporation with fresh medium. 48 hours later, supernatants were harvested, centrifuged to remove cells, and assayed for IgM content using the OPT-EIA™ ELISA kit (Pharmingen, San Diego, Calif.) and capture and detecting antibodies for mouse IgM (Southern Biotechnology, Birmingham, Ala.).

RANTES mRNA = assay: Induction of chemokines in BCL1 cells, RNase protection assay: RANTES; type: cell-based, mouse; details: CpG oligonucleotide induced
Method: (§1) The effect of ISIS 17152 (SEQ ID. NO. 99) on chemokine levels was determined. BCL1 cells were grown, treated and processed as described in Example 2. Chemokine gene expression was induced in BCL1 cells by addition of […] of a CpG-containing oligonucleotide to the media 16 hours following antisense oligonucleotide electroporation. CpG-containing oligonucleotides are immune-stimulatory (Krieg, A. M., et al., Nature, 1995, 374, 546-549). The levels of chemokines were measured eight hours later using RNase protection assay as described in Example 2 with a mouse chemokine template set, Mck-5 (Pharmingen, San Diego, Calif.).

Mouse STAT3 protein = assay: STAT3 protein levels in BCL1 cells by Western blot, dose response; type: cell-based
Method: ISIS 17152 (SEQ ID. NO. 99) was chosen for further study. The effect of this oligonucleotide on protein levels was determined by Western blot. ISIS 23177 (SEQ ID NO. 106), a 3 base mismatch, was used as a control. BCL1 cells were grown, treated and processed as described in Example 2.
Nuclear extracts from primary B cells and B lymphoma cell lines were prepared as described in Karras, J. G., et al. (J. Exp. Med., 1997, 185, 1035-1042).
Western blotting was performed as described in Karras, J. G. et al. (J. Immunol., 1996, 157, 2299). STAT1 and STAT3 antibodies were obtained from UBI (Lake Placid, N.Y.).

MIP1a mRNA = assay: Induction of chemokines in BCL1 cells, RNase protection assay: MIP1a; type: cell-based, mouse; details: CpG oligonucleotide induced
Method: as §1

Mouse STAT3 mRNA = assay: Inhibition of mouse STAT3 mRNA expression in BCL1 cells (electroporation; RNase protection/Northern blot); type: cell-based; design: % mRNA INHIBITION: dose or concentration left out as unconfirmed; details: BCL1 cells electroporated with oligonucleotide, RNA collected 24 hours later
MIP1b mRNA = assay: Induction of chemokines in BCL1 cells, RNase protection assay: MIP1b; type: cell-based, mouse; details: CpG oligonucleotide induced
Method: as §1

BCL1 cells = assay: BCL1 cell proliferation, [3H]-thymidine incorporation; type: cell-based, mouse; details: BCL1 cells; for % Cell Proliferation: 48 hours after electroporation
Method: The effect of ISIS 17152 (SEQ ID NO. 99) on BCL1 proliferation was determined. BCL1 cells contain constitutively active STAT3 which is thought to be responsible for their proliferation. BCL1 cells were grown, treated and processed as described in Example 2.
1×10^5 BCL1 cells were incubated in 96-well plates in […] complete RPMI following electroporation. Cultures were pulsed with […] of [^3H]-thymidine for the last 8 hours of culture and cells were harvested and analyzed for thymidine incorporation as described in Francis, D. A. et al. (Int. Immunol., 1995, 7, 151-161) 48 hours after electroporation.

[3] = system: U266 multiple myeloma cells; assay: Apoptosis of U266 cells, Annexin-V staining, flow cytometry; type: cell-based, human
Method: U266 cells (ATCC, Bethesda, Md.) were cultured in RPMI 1640 medium supplemented with 10% heat-inactivated fetal bovine serum (Sigma Chemical Company, St. Louis, Mo.), 10 mM Hepes, pH 7.2, […] 2-ME, 2mM L-glutamine, 100 U/ml penicillin, and 100 µg/ml streptomycin (Gibco, Grand Island, N.Y.).
2′-O-methoxyethylribose modified phosphorothioate oligonucleotides were synthesized on an automated DNA synthesizer (Applied Biosystems model 380B), as described above. Chimeric oligonucleotides were employed in these studies; the chimeric oligonucleotides contain 2′-O-methoxyethyl modified residues flanking a 2′-deoxynucleotide/phosphorothioate region (gap) that supports RNase H activation. Oligonucleotides were analyzed by capillary gel electrophoresis and judged to be at least 85% full-length material. U266 (1×10^7 cells in PBS) were transfected with oligonucleotides by electroporation, at 175V, 1000 μF using a BTX Electro Cell Manipulator 600 (Genetronics, San Diego, Calif.).
10×10^6 U266 cells were electroporated with oligonucleotides and cultured for 48 hours before analysis of phosphatidylserine expression was performed as a measure of apoptosis using the Annexin-V staining kit (Clontech, Palo Alto, Calif.) according to the manufacturer's instructions. […] The samples were then diluted with FacsFlow buffer and analyzed on a Becton Dickinson FACScan (Mountain View, Calif.).

Human STAT3 mRNA [4] = assay: STAT3 mRNA in A549 cells treated with dsRNAs (duplex antisense compounds), real-time PCR PPS 199 (Table 22); type: cell-based; details: treated 4 hours, harvested 16 hours later, − decrease, + increase vs untreated control
Method: When cells reached 80% confluency, they are treated with duplexed antisense compounds of the invention. For cells grown in 96-well plates, wells are washed once with […] OPTI-MEM-1 reduced-serum medium (Gibco BRL) and then treated with 130 μL of OPTI-MEM-1 containing 12 μg/mL LIPOFECTIN (Gibco BRL) and the desired duplex antisense compound at a final concentration of 200 nM (a ratio of 6 μg/mL LIPOFECTIN per 100 nM duplex antisense compound). After 5 hours of treatment, the medium is replaced with fresh medium. Cells are harvested 16 hours after treatment, at which time RNA is isolated and target reduction measured by RT-PCR.
The compounds in Table 21 were tested for their effects on human STAT3 expression in A549 cells. ISIS 330249 targets the same site as the antisense oligonucleotid ISIS 106734 (SEQ ID NO: 45) and ISIS 330247 targets the same site as the antisense oligonucleotide ISIS 113176 (SEQ ID NO: 115); thus, ISIS 106734 and ISIS 113176 were also tested. A549 cells were treated with oligonucleotide mixed with LIPOFECTIN (Invitrogen Corporation, Carlsbad, Calif.) as described herein. The control oligonucleotide used was ISIS 129698 ([…], SEQ ID NO: 402). Cells were treated with oligonucleotide for 4 hours and harvested an additional 16 hours later. Untreated cells served as a control.
Human STAT3 mRNA expression levels were quantitated by real-time PCR using primer probe set PPS 199 and gene target quantities were normalized using Ribogreen as described in other examples herein. A “−” or “+” designation indicates a decrease or increase of STAT 3 mRNA expression, respectively, relative to untreated control cells. Where present, “N.D.” indicates not determined.

LGL leukemic cells = assay: Sensitization of LGL cells to Fas-mediated apoptosis, flow cytometry; type: cell-based, human
Method: LGL leukemic cells were obtained from patients who met the clinical criteria of T cell (CD3+) LGL leukemia with increased LGL counts and clonal TCR gene rearrangements. All patients had chronic disease not requiring treatment at the time of analysis. Purified leukemic LGL cells were placed in 24-well plates at a concentration of 2×10^6/0.5 mL of complete medium (RPMI-1640 medium supplemented with 10% fetal bovine serum, 2 mM L-glutamine, 10 U/mL penicillin, and 100 ug/mL streptomycin, all from Gibco Life Technologies, Gaithersburg, Md.). Cells were incubated with either ISIS 17148 antisense oligonucleotide (SEQ ID NO: 95) or the control, ISIS 16094 (SEQ ID NO: 152). Antisense oligonucleotide delivery to LGL leukemic cells was by passive uptake and no transfection reagents were included in the reaction.
Extracts of LGL cells treated with antisense oligonucleotides (1 uM dosing for ISIS 17148 and the control) from three patients were obtained and assayed for STAT3 protein levels by Western blot. Sensitization of the LGL cells to Fas-mediated apoptosis was also measured by flow cytometry in cells treated with antisense oligonucleotides at doses of 1, 2 and 5 uM. By Western analysis, a reduction in STAT3 protein levels ranged from 25 to 45%. […] Levels of apoptosis in control oligonucleotide treated cells remained at 6% at all doses.

## 17152 (antisense eA*eA*eA*eA*eA*dG*dT*dG*dC*dC*dC*dA*dG*dA*dT*eT*eG*e[5mC]*e[5mC]*e[5mC]) [compound 17152]
Human STAT3 mRNA [1]
  % mRNA INHIBITION: 17.5%
  % mRNA EXPRESSION: 82.5%
[2]; dose 5 nM
  % IgM Expression: 34.2%
  % IgM Inhibition: 65.8%
[2]; dose 15 nM
  % IgM Expression: 23.1%
  % IgM Inhibition: 76.9%
RANTES mRNA; dose 5 nM, control 100%
  % RANTES mRNA: 236%
RANTES mRNA; dose 10 nM
  % RANTES mRNA: 266%
RANTES mRNA; dose 20 nM
  % RANTES mRNA: 257%
Mouse STAT3 protein; dose 10 nM
  % protein Expression: 41.7%
  % protein Inhibition: 58.3%
Mouse STAT3 protein; dose 15 nM
  % protein Expression: 42.5%
  % protein Inhibition: 57.5%
Mouse STAT3 protein; dose 20 nM
  % protein Expression: 26.5%
  % protein Inhibition: 73.5%
MIP1a mRNA; dose 5 nM
  % MIP1a mRNA: 201%
MIP1a mRNA; dose 10 nM
  % MIP1a mRNA: 258%
MIP1a mRNA; dose 20 nM
  % MIP1a mRNA: 254%
Mouse STAT3 mRNA
  % mRNA INHIBITION: 75%
Mouse STAT3 mRNA; control 100%
  % mRNA EXPRESSION: 25%
MIP1b mRNA; dose 5 nM
  % MIP1b mRNA: 133%
MIP1b mRNA; dose 10 nM
  % MIP1b mRNA: 150%
MIP1b mRNA; dose 20 nM
  % MIP1b mRNA: 159%
BCL1 cells; dose 10 nM
  % Cell Inhibition: 21.5%
  % Cell Proliferation: 78.5%
BCL1 cells; dose 15 nM
  % Cell Inhibition: 45.6%
  % Cell Proliferation: 54.4%
BCL1 cells; dose 20 nM
  % Cell Inhibition: 49.8%
  % Cell Proliferation: 50.2%

## 113176 (antisense eG*e[5mC]*eT*e[5mC]*e[5mC]*dA*dG*d[5mC]*dA*dT*d[5mC]*dT*dG*d[5mC]*dT*eG*e[5mC]*eT*eT*e[5mC]) [compound 113176]
[3]
  annexin V staining (in words): increased levels of annexin V staining
Human STAT3 mRNA [1]; Oligo concentration 2.5 μM
  Percent inhibition of STAT3 expression: 33%
Human STAT3 mRNA [1]; Oligo concentration 5 μM
  Percent inhibition of STAT3 expression: 67%
Human STAT3 mRNA [1]; Oligo concentration 10 μM
  Percent inhibition of STAT3 expression: 79%
Human STAT3 mRNA [1]
  % mRNA INHIBITION: 27.7%
  % mRNA EXPRESSION: 72.3%
Human STAT3 mRNA [4]; 12.5 nM oligonucleotide
  Percent change in STAT3 mRNA expression in A549 cells by duplex antisense compounds: +8%
Human STAT3 mRNA [4]; 25 nM oligonucleotide
  Percent change in STAT3 mRNA expression in A549 cells by duplex antisense compounds: +17%
Human STAT3 mRNA [4]; 50 nM oligonucleotide
  Percent change in STAT3 mRNA expression in A549 cells by duplex antisense compounds: +6%
Human STAT3 mRNA [4]; 100 nM oligonucleotide
  Percent change in STAT3 mRNA expression in A549 cells by duplex antisense compounds: 0%
Human STAT3 mRNA [4]; 200 nM oligonucleotide
  Percent change in STAT3 mRNA expression in A549 cells by duplex antisense compounds: −22%
Human STAT3 mRNA [4]; 400 nM oligonucleotide
  Percent change in STAT3 mRNA expression in A549 cells by duplex antisense compounds: −34%

## ACTCAAACTGCCCTCCTGCT (listed as DNA, chemistry not fully specified) [ISIS 17148]
[3]
  annexin V staining (in words): increased levels of annexin V staining
LGL leukemic cells; 1 uM, untreated cells 5%
  percent specific apoptosis: 6%
LGL leukemic cells; 2 uM
  percent specific apoptosis: 17%
LGL leukemic cells; 5 uM
  percent specific apoptosis: 24%
Human STAT3 mRNA [1]; following electroporation, Northern blotting
  STAT3 mRNA expression in U266 cells (in words): potently inhibit STAT3 mRNA expression
